Results from patent US20240315952A1, “PERSONAL CARE COMPOSITION” (Conopco, Inc., d/b/a UNILEVER, priority 2020, published 2024).

Test system: IL-1α
Assay: IL-1α expression in EpiKutis living skin equivalent (LSE) stressed with 1% SQOOH, human immunoassay kit
Type: cell-based
Settings: levels are raw material wt %; for IL-1α level: EpiKutis 3D reconstructed human epidermis, sample applied topically, then 3 μL of 1% SQOOH, after 72 hours; for Inhibition: inhibition of IL-1α vs 1% SQOOH control, EpiKutis LSE, 72 hours
Procedure: EpiKutis® living skin equivalent (LSE), is a 3D reconstructed human epidermis model with Chinese human keratinocytes through air-liquid interface culture in a defined serum free medium, supplied by supplied by Biocell (Xi'an, China). Squalene monohydroperoxide (SQOOH), a stress surrogate, was prepared in house, by subjecting squalene to solar irradiation in the presence of a sensitizer.
The SQOOH was diluted using squalene. The moringa oil was dissolved in DMSO (dimethyl sulfoxide) at a concentration of 100 mM to form a stock solution. The samples in Table 1 were prepared accordingly by diluting the materials except moringa oil and/or stock solution with PBS (phosphate-buffered saline) to the desired levels as indicated in Table 1 before use for further experiment.
The sample was applied topically to the LSE followed by application of 3 μL of 1% SQOOH. The medium was then refreshed with interval of 24 hours. After 72 hours, the tissues were collected for histology and to test the extent of viability. The IL-1a expression was evaluated using a human immunoassay kit from R&D systems (Cat. DLA 50) and tested following the manufacturer's instructions.

NC(=O)c1cccnc1 [Sample 6, Niacinamide]
IL-1α level: 5.8 ± 0.60 pg/mL | Inhibition: 33.57%

NC(=O)c1cccnc1 [Sample 5, Niacinamide]
IL-1α level: 6.6 ± 0.63 pg/mL | Inhibition: 25.33%
